Laboratory results reported in PMC10689823, “Discovery of a Drug-like, Natural Product-Inspired DCAF11 Ligand Chemotype” (Nature Communications, 2023).

Target: BRD4S-TagBFP reporter (Homo sapiens, UniProt O60885)
Experiment: FACS-based CRISPR/Cas9 BRD4 protein stability screen
Conditions: Mageck_Gene level
Experimental: The virus containing supernatant was cleared of cellular debris by filtration through a 0.45-µm PES filter and used to transduce KBM7 BRD4-BFP reporter cells harboring a doxycycline inducible Cas9 allele at a multiplicity of infection (MOI) of 0.05 and 1,000-fold library representation. Library-transduced cells were selected with G418 (1 mg ml^−1, Gibco) for 14 days, expanded and Cas9 expression was induced with DOX (0.4 µg ml^−1, PanReac AppliChem).
Cells were washed with and stored in FACS buffer (PBS containing 5% FBS and 1 mM EDTA) at 4 °C overnight. The next day, cells were strained trough a 35 µm nylon mesh and sorted on a BD FACSAria™ Fusion (BD Biosciences) using a 85 µm nozzle. Aggregates, dead (ZombieNIR positive), Cas9-negative (GFP) and sgRNA library-negative (Thy1.1-APC) cells were excluded, and the remaining cells were sorted based on their BRD4-BFP and mCherry levels into BRD4^HIGH (10% of cells), BRD4^MID (30%) and BRD4^LOW (10%) fractions. For each sample, cells corresponding to at least 2,000-fold library representation were sorted per replicate.
Next-generation sequencing (NGS) libraries of sorted cell fractions were prepared as previously described[25]. In brief, genomic DNA was isolated by cell lysis (10 mM Tris-HCl, 150 mM NaCl, 10 mM EDTA, 0.1% SDS), proteinase K treatment (New England Biolabs) and DNAse-free RNAse digest (Thermo Fisher Scientific), followed by two rounds of phenol extraction and 2-propanol precipitation. Isolated genomic DNA was subjected to several freeze–thaw cycles before nested polymerase chain reaction (PCR) amplification of the sgRNA cassette.
Barcoded NGS libraries for each sorted population were generated using a two-step PCR protocol using AmpliTaq Gold (Invitrogen). The resulting PCR products were purified using Mag-Bind® TotalPure NGS beads (Omega Bio-tek) and amplified in a second PCR introducing the standard Illumina adapters. The final Illumina libraries were bead-purified, pooled and sequenced on a HiSeq 3500 platform (Illumina).
Screen analysis was performed as previously described[25]. Briefly, sequencing reads were quantified using the crispr-process-nf Nextflow workflow, available at https://github.com/ZuberLab/crispr-process-nf/tree/566f6d46bbcc2a3f49f51bbc96b9820f408ec4a3. For statistical analysis, we used the crispr-mageck-nf Nextflow workflow, available at https://github.com/ZuberLab/crispr-mageck-nf/tree/c75a90f670698bfa78bfd8be786d6e5d6d4fc455. To calculate gene-level enrichment, the sorted populations (BRD4^HIGH or BRD4^LOW) were compared to the BRD4^MID populations in MAGeCK (0.5.9)[46], using median normalized read counts.

High_lfc (Gene DCAF1): 0.07
High_logP (Gene DCAF1): 0.4
Low_lfc (Gene DCAF1): 0.08
Low_logP (Gene DCAF1): 0.47
High_lfc (Gene DCAF4): 0.04
High_logP (Gene DCAF4): 0.26
Low_lfc (Gene DCAF4): 0.5
Low_logP (Gene DCAF4): 1.14
High_lfc (Gene DCAF5): -0.31
High_logP (Gene DCAF5): 0.03
Low_lfc (Gene DCAF5): -0.2
Low_logP (Gene DCAF5): 0.09
High_lfc (Gene DCAF6): -0.27
High_logP (Gene DCAF6): 0.06
Low_lfc (Gene DCAF6): 0.14
Low_logP (Gene DCAF6): 0.62
High_lfc (Gene DCAF7): -0.06
High_logP (Gene DCAF7): 0.19
Low_lfc (Gene DCAF7): 0.05
Low_logP (Gene DCAF7): 0.29
High_lfc (Gene DCAF8): -0.08
High_logP (Gene DCAF8): 0.19
Low_lfc (Gene DCAF8): 0.22
Low_logP (Gene DCAF8): 0.46
High_lfc (Gene DCAF12): -0.19
High_logP (Gene DCAF12): 0
Low_lfc (Gene DCAF12): -0.38
Low_logP (Gene DCAF12): 0
High_lfc (Gene DCAF13): -0.32
High_logP (Gene DCAF13): 0.14
Low_lfc (Gene DCAF13): -0.17
Low_logP (Gene DCAF13): 0.23
High_lfc (Gene DCAF15): 0.02
High_logP (Gene DCAF15): 0.29
Low_lfc (Gene DCAF15): 0.34
High_lfc (Gene DCAF16): 0.41
High_logP (Gene DCAF16): 1.29
Low_lfc (Gene DCAF16): 0.15
Low_logP (Gene DCAF16): 0.08
High_lfc (Gene DCAF17): -0.4
High_logP (Gene DCAF17): 0.08
Low_lfc (Gene DCAF17): -0.25
Low_logP (Gene DCAF17): 0.08
High_lfc (Gene DCUN1D1): -0.16
High_logP (Gene DCUN1D1): 0.04
Low_lfc (Gene DCUN1D1): -0.14
Low_logP (Gene DCUN1D1): 0.41
High_lfc (Gene DCUN1D2): -0.24
High_logP (Gene DCUN1D2): 0.01
Low_lfc (Gene DCUN1D2): 0.34
Low_logP (Gene DCUN1D2): 0.85
High_lfc (Gene DCUN1D3): 0.11
High_logP (Gene DCUN1D3): 0.22
Low_lfc (Gene DCUN1D3): 0.24
Low_logP (Gene DCUN1D3): 1.2
High_lfc (Gene DCUN1D4): -0.01
High_logP (Gene DCUN1D4): 0.07
Low_lfc (Gene DCUN1D4): 0.03
Low_logP (Gene DCUN1D4): 0.28
High_lfc (Gene DCUN1D5): 0.22
High_logP (Gene DCUN1D5): 0.38
Low_lfc (Gene DCUN1D5): -0.23
Low_logP (Gene DCUN1D5): 0.04
High_lfc (Gene DDA1): 0.21
High_logP (Gene DDA1): 0.55
Low_lfc (Gene DDA1): -0.07
Low_logP (Gene DDA1): 0.09
High_lfc (Gene DDB1): 1.6
Low_lfc (Gene DDB1): -0.07
Low_logP (Gene DDB1): 0.14
High_lfc (Gene DDB2): -0.17
High_logP (Gene DDB2): 0.1
Low_lfc (Gene DDB2): 0.02
Low_logP (Gene DDB2): 0.41
High_lfc (Gene DET1): 0.13
High_logP (Gene DET1): 0.2
Low_lfc (Gene DET1): 0.1
Low_logP (Gene DET1): 0.55
High_lfc (Gene DHX15): 0.88
High_logP (Gene DHX15): 3.08
Low_lfc (Gene DHX15): 0.33
Low_logP (Gene DHX15): 0.15
High_lfc (Gene DTL): -0.32
High_logP (Gene DTL): 0.12
Low_lfc (Gene DTL): 0.6
Low_logP (Gene DTL): 1.9
High_lfc (Gene ECT2L): 0.08
High_logP (Gene ECT2L): 0.35
Low_lfc (Gene ECT2L): 0.18
Low_logP (Gene ECT2L): 0.73
High_lfc (Gene EED): -0.14
High_logP (Gene EED): 0.1
Low_lfc (Gene EED): -0.33
Low_logP (Gene EED): 0.06
High_lfc (Gene EIF4A1): -0.23
High_logP (Gene EIF4A1): 0.17
Low_lfc (Gene EIF4A1): 0.22
Low_logP (Gene EIF4A1): 0.27
High_lfc (Gene EIF4A3): -0.5
High_logP (Gene EIF4A3): 0.12
Low_lfc (Gene EIF4A3): 0.83
Low_logP (Gene EIF4A3): 3.36
High_lfc (Gene ELOA2): 0.27
High_logP (Gene ELOA2): 1.5
Low_lfc (Gene ELOA2): -0.21
Low_logP (Gene ELOA2): 0.02
High_lfc (Gene ELOA3): -0.14
High_logP (Gene ELOA3): 0.04
Low_lfc (Gene ELOA3): -0.68
Low_logP (Gene ELOA3): 0
High_lfc (Gene ELOA3D): -0.17
High_logP (Gene ELOA3D): 0.16
Low_lfc (Gene ELOA3D): -0.44
Low_logP (Gene ELOA3D): 0.05
High_lfc (Gene ELOA): 0.14
High_logP (Gene ELOA): 0.38
Low_lfc (Gene ELOA): 0.01
Low_logP (Gene ELOA): 0.08
High_lfc (Gene ELOB): 0.32
High_logP (Gene ELOB): 1.07
Low_lfc (Gene ELOB): 0.26
Low_logP (Gene ELOB): 0.54
High_lfc (Gene ELOC): 0.2
High_logP (Gene ELOC): 0.44
Low_lfc (Gene ELOC): 0.2
Low_logP (Gene ELOC): 0.9
High_lfc (Gene ENC1): -0.31
High_logP (Gene ENC1): 0
Low_lfc (Gene ENC1): -0.06
Low_logP (Gene ENC1): 0.22
High_lfc (Gene EPHA4): -0.08
High_logP (Gene EPHA4): 0.25
Low_lfc (Gene EPHA4): -0.27
Low_logP (Gene EPHA4): 0.02
High_lfc (Gene ERCC8): -0.71
High_logP (Gene ERCC8): 0.04
Low_lfc (Gene ERCC8): -0.42
Low_logP (Gene ERCC8): 0.02
High_lfc (Gene ESCO1): 0.09
High_logP (Gene ESCO1): 0.53
Low_lfc (Gene ESCO1): -0.29
Low_logP (Gene ESCO1): 0.05
High_lfc (Gene FAM9A): -0.13
High_logP (Gene FAM9A): 0.02
Low_lfc (Gene FAM9A): -0.08
Low_logP (Gene FAM9A): 0.64
High_lfc (Gene FBXL2): -0.04
High_logP (Gene FBXL2): 0.25
Low_lfc (Gene FBXL2): -0.25
Low_logP (Gene FBXL2): 0.03
High_lfc (Gene FBXL3): -0.55
High_logP (Gene FBXL3): 0
Low_lfc (Gene FBXL3): 0
Low_logP (Gene FBXL3): 0.15
High_lfc (Gene FBXL4): -0.13
High_logP (Gene FBXL4): 0.04
Low_lfc (Gene FBXL4): 0.11
Low_logP (Gene FBXL4): 0.32
High_lfc (Gene FBXL5): -0.03
High_logP (Gene FBXL5): 0.1
Low_lfc (Gene FBXL5): -0.22
Low_logP (Gene FBXL5): 0.05
High_lfc (Gene FBXL6): -0.15
High_logP (Gene FBXL6): 0.09
Low_lfc (Gene FBXL6): -0.18
Low_logP (Gene FBXL6): 0.14
High_lfc (Gene FBXL7): -0.1
High_logP (Gene FBXL7): 0.12
Low_lfc (Gene FBXL7): 0.04
Low_logP (Gene FBXL7): 0.13
High_lfc (Gene FBXL8): -0.02
High_logP (Gene FBXL8): 0.08
Low_lfc (Gene FBXL8): -0.1
Low_logP (Gene FBXL8): 0.23
High_lfc (Gene FBXL12): -0.02
High_logP (Gene FBXL12): 0.03
Low_lfc (Gene FBXL12): 0.09
Low_logP (Gene FBXL12): 0.2
High_lfc (Gene FBXL13): 0.02
High_logP (Gene FBXL13): 0.26
Low_lfc (Gene FBXL13): 0.01
Low_logP (Gene FBXL13): 0.21
High_lfc (Gene FBXL14): -0.22
High_logP (Gene FBXL14): 0.01
Low_lfc (Gene FBXL14): -0.05
Low_logP (Gene FBXL14): 0.13
High_lfc (Gene FBXL15): 0.13
High_logP (Gene FBXL15): 0.24
Low_lfc (Gene FBXL15): 0.16
Low_logP (Gene FBXL15): 0.21
High_lfc (Gene FBXL16): 0.23
High_logP (Gene FBXL16): 0.22
Low_lfc (Gene FBXL16): 0.16
Low_logP (Gene FBXL16): 0.37
High_lfc (Gene FBXL17): -0.14
High_logP (Gene FBXL17): 0.03
Low_lfc (Gene FBXL17): -0.04
Low_logP (Gene FBXL17): 0.45
High_lfc (Gene FBXL18): 0.05
High_logP (Gene FBXL18): 0.34
Compound: Cc1sc2c(c1C)C(c1ccc(Cl)cc1)=NC(CC(=O)NCCOCCOCCOCCOc1c(Br)cc(C=C3C(=O)Nc4ccc(Br)cc43)cc1Br)c1nnc(C)n1-2 (centres unmarked) [Compound 10]
